Experimental data: article PMC9635925, “Biological screening of a unique drug library targeting MRGPRX2” (Frontiers in Immunology, 2022)
Changes are numbered by the printed parent chain. Structures can show the parent of a compound that is named as a salt.

What was measured:
[1] = target: T1, MRGPRX2-WT (wild-type MRGPRX2 receptor) (Homo sapiens, UniProt Q96LB1); assay: Primary HTS, Ca2+ mobilization (fluorescence ratio, B-score) in HEK293-Gα15 cells stably expressing wild-type MRGPRX2; type: cell-based; details: 10 μM compound
T1 construct: expressed in transfected cells
T1 sequence (Q96LB1 1-330): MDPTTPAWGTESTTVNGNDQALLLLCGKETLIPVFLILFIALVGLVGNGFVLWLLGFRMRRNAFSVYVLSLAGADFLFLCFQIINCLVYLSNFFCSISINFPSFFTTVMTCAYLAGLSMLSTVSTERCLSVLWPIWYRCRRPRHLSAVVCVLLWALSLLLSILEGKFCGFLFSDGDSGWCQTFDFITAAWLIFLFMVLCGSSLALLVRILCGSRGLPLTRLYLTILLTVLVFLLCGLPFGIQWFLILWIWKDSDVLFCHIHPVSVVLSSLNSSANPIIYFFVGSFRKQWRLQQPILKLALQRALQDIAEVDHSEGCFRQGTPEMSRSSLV

LAD2 cells = assay: β-hexosaminidase release (degranulation) in human mast cell line LAD2; type: cell-based
Description: (§1) The human mast cell line LAD2 (Laboratory of Allergic Diseases-2) was obtained from Dean Metcalfe, MD (National Institute of Allergy and Infectious Diseases, National Institutes of Health, Bethesda, MD). […] We included two negative and two positive controls for the validation experiments in LAD2 cells. […] Additionally, vehicle control (without any drugs) was also included as the negative control. Drugs were dissolved in PBS (vehicle) and six concentrations were tested for each drug; the known MRGPRX2 agonist C48/80 (10 μg/mL) and Tween 20 (1%), which is a known mast cell activator via MRGPRX2 independent mechanism, were used as positive controls. Two-way ANOVA with the Sidak multiple comparisons test was used for statistical analysis (n=6).
(§2) We further investigated whether these newly discovered candidate drugs can serve as agonists for MRGPRX2-dependent activation of MCs.

[2] = test system: MRGPRX2-deficient LAD2 cells; assay: β-hexosaminidase release in MRGPRX2-deficient LAD2 cells (CRISPR/Cas9); type: cell-based, human; details: two-way ANOVA, P< 0.0001
Description: as §1, §2

[3] = target: T2, MRGPRX2-MUT (MRGPRX2 N62S mutation) (Homo sapiens, UniProt Q96LB1, N62S); assay: Primary HTS, Ca2+ mobilization (fluorescence ratio, B-score) in HEK293-Gα15 cells stably expressing the MRGPRX2 N62S mutation; type: cell-based; details: for B-scores (MUT): 10 μM compound, MRGPRX2-MUT (N62S) cells; for Change of B-scores (%): 10 μM
T2 construct: expressed in transfected cells
T2 sequence (Q96LB1 1-330 N62S): T1 sequence (Q96LB1 1-330) with N62S

[4] = MRGPRX2-MUT in comparison to MRGPRX2-WT cells, Supplementary Table 1
[5] = MRGPRX2-MUT in comparison to MRGPRX2-WT cells, Table 1
[6] = MRGPRX2-MUT versus MRGPRX2-WT cells, Supplementary Table 2

Row | B-scores (WT) ([1]; Supplementary Table 1) | B-scores (WT) ([1]; Supplementary Table 2) | B-scores (WT) ([1]; Table 1) | B-scores (MUT) ([3]; Supplementary Table 1) | B-scores (MUT) ([3]; Supplementary Table 2) | B-scores (MUT) ([3]; Table 1) | Change of B-scores (%) [3, 4] [%] | Change of B-scores (%) [3, 5] [%] | Change of B-scores (%) [3, 6] [%] | Compound | β-hexosaminidase release (LAD2 cells; at 500 μM) [%] | degranulation (β-hexosaminidase release) in LAD2 cells lacking MRGPRX2 [2] | β-hexosaminidase release (LAD2 cells; at 125 μM) [%]
1 | 41.41 | 41.41 | 41.41 | 1.21 | 1.21 | 1.21 | -97.07 | -97.07 | -97.07 | CN(C)CCC(c1ccc(Br)cc1)c1ccccn1 (stereo not drawn) [Brompheniramine Maleate] | 56.43 | decreased to the level of vehicle controls | –
2 | – | – | – | – | – | – | – | – | – | Cc1ccc(NC(=O)c2ccc(CN3CCN(C)CC3)cc2)cc1Nc1nccc(-c2cccnc2)n1 [Imatinib Mesylate] | – | decreased to the level of vehicle controls | 58.42
3 | – | 7.86 | – | – | -0.79 | – | – | – | -110.02 | CCn1cc(C(=O)O)c(=O)c2cc(F)c(N3CCN(C)CC3)cc21.CS(=O)(=O)O [Pefloxacine Mesylate] | – | – | –
4 | 37.48 | – | – | 0.43 | – | – | -98.84 | – | – | N=C(N)c1ccc(OCCCCCOc2ccc(C(=N)N)cc2)cc1 [Pentamidine Isethionate] | – | – | –
5 | 24.12 | – | – | 8.70 | – | – | -63.92 | – | – | N=C(N)c1ccc(OCCCCCOc2ccc(C(=N)N)cc2)cc1 [Pentamidine] | – | – | –
6 | 39.73 | – | – | 1.29 | – | – | -96.75 | – | – | CN1CCC(=C2c3ccccc3CCc3sccc32)CC1.O=C(O)CC(O)C(=O)O [Pizotyline Malate] | – | – | –
7 | 23.47 | 23.47 | 23.47 | 8.13 | 8.13 | 8.13 | -65.37 | -65.37 | -65.37 | CN(C)CCCN1c2ccccc2Sc2ccccc21 [Promazine Hydrochloride] | – | – | –
8 | 24.43 | – | 24.43 | 3.59 | – | 3.59 | -85.30 | -85.30 | – | CNCCCC1c2ccccc2C=Cc2ccccc21 [Protriptyline Hydrochloride] | – | – | –
9 | – | 13.36 | – | – | 0.23 | – | – | – | -98.24 | COc1ccc(CN(CCN(C)C)c2ccccn2)cc1 [Pyrilamine] | – | – | –
10 | 22.18 | – | – | 31.66 | – | – | 42.73 | – | – | CCOC(=O)[C@H](CCc1ccccc1)N[C@@H](C)C(=O)N1[C@H](C(=O)O)C[C@@H]2CCC[C@@H]21 [Ramipril] | – | – | –
11 | 23.94 | – | 23.94 | 0.37 | – | 0.37 | -98.45 | -98.45 | – | CO[C@H]1/C=C/O[C@@]2(C)Oc3c(C)c(O)c4c(O)c(c(/C=N/N5CCN(C)CC5)c(O)c4c3C2=O)NC(=O)/C(C)=C\C=C\[C@H](C)[C@H](O)[C@@H](C)[C@@H](O)[C@@H](C)[C@H](OC(C)=O)[C@@H]1C [Rifampin] | – | – | –
12 | 19.85 | – | 19.85 | – | – | -0.15 | -100.76 | -100.76 | – | CN1CCN(c2c(F)cc3c(=O)c(C(=O)O)cn4c3c2SCC4)CC1.Cl [Rufloxacin Hydrochloride] | – | – | –
13 | – | 13.61 | – | – | 0.36 | – | – | – | -97.38 | CC(C)(C)NCC(O)c1ccc(O)c(CO)c1 (stereo not drawn) [Salbutamol] | – | – | –
14 | – | 15.97 | – | – | 0 | – | – | – | -100 | O=C(O)c1cn(-c2ccc(F)cc2)c2cc(N3CCNCC3)c(F)cc2c1=O [Sarafloxacin hydrochloride] | – | – | –
15 | – | 7.75 | – | – | 1.08 | – | – | – | -86.07 | CN1CCN(CCCN2c3ccccc3Sc3ccc(C(F)(F)F)cc32)CC1 [Stelazine] | – | – | –
16 | – | 15.97 | – | – | 1.91 | – | – | – | -88.03 | CC(C)(C)NCC(O)c1cc(O)cc(O)c1.CC(C)(C)NCC(O)c1cc(O)cc(O)c1.O=S(=O)(O)O (stereo not drawn) [Terbutaline Hemisulfate] | – | – | –
17 | 20.36 | – | 20.36 | 5.11 | – | 5.11 | -74.90 | -74.90 | – | CN1CCN(CC/C=C2/c3ccccc3Sc3ccc(S(=O)(=O)N(C)C)cc32)CC1 [Thiothixene] | – | – | –
18 | 33.23 | – | 33.23 | 1.69 | – | 1.69 | -94.91 | -94.91 | – | COc1ccc(CN(CCN(C)C)c2ncccn2)cc1 [Thonzylamine Hydrochloride] | – | – | –
19 | – | 8.62 | – | – | 0.85 | – | – | – | -90.15 | CN(C)CCCN1c2ccccc2Sc2ccc(C(F)(F)F)cc21 [Triflupromazine Hydrochloride] | – | – | –
20 | 27.11 | – | – | 19.11 | – | – | -29.51 | – | – | CC(CN(C)C)CN1c2ccccc2Sc2ccccc21.CC(CN(C)C)CN1c2ccccc2Sc2ccccc21.O=C(O)C(O)C(O)C(=O)O (stereo not drawn) [Trimeprazine Tartrate] | – | – | –
21 | 18.56 | – | – | 0.14 | – | – | -99.27 | – | – | COc1cc(C(=O)NCc2ccc(OCCN(C)C)cc2)cc(OC)c1OC [Trimethobenzamide Hydrochloride] | – | – | –
22 | 23.09 | – | 23.09 | 3.48 | – | 3.48 | -84.91 | -84.91 | – | CC(CN(C)C)CN1c2ccccc2CCc2ccccc21 (stereo not drawn) [Trimipramine Maleate] | – | – | –
23 | 20.71 | – | 20.71 | 0.68 | – | 0.68 | -96.71 | -96.71 | – | Cc1ccc(/C(=C\CN2CCCC2)c2ccccn2)cc1.Cl [Triprolidine Hydrochloride] | – | – | –
24 | 20.46 | – | 20.46 | 5.73 | – | 5.73 | -71.99 | -71.99 | – | Buserelin | – | – | –
25 | 37.20 | – | – | 15.06 | – | – | -59.51 | – | – | Corticotropin A (SYSMEHFRWGKPVGKKRRPVKVYPNGAEDESAEAFPLEF; Corticotropin; UniProt P01189 138-176, looked up) [Adrenocorticotropic hormone (ACTH)] | – | – | –

Row | Compound | B-scores (WT) ([1]; Supplementary Table 1) | B-scores (WT) ([1]; Supplementary Table 2) | B-scores (WT) ([1]; Table 1) | B-scores (MUT) ([3]; Supplementary Table 1) | B-scores (MUT) ([3]; Supplementary Table 2) | B-scores (MUT) ([3]; Table 1) | Change of B-scores (%) [3, 4] [%] | Change of B-scores (%) [3, 5] [%] | Change of B-scores (%) [3, 6] [%] | β-hexosaminidase release (LAD2 cells; at 500 μM) [%] | degranulation (β-hexosaminidase release) in LAD2 cells lacking MRGPRX2 [2] | β-hexosaminidase release (LAD2 cells; at 125 μM) [%]
26 | C[CH2][Hg][S]c1ccccc1C(=O)[O-].[Na+] [Thimerosal] | 18.55 | – | – | 0.33 | – | – | -98.25 | – | – | – | – | –
27 | COc1ccc(CCN(C)CCCC(C#N)(c2ccc(OC)c(OC)c2)C(C)C)cc1OC (stereo not drawn) [Verapamil Hydrochloride] | – | 9.68 | – | – | 1.41 | – | – | – | -85.46 | – | – | –
28 | COc1ccc(CCN(C)CCCC(C#N)(c2ccc(OC)c(OC)c2)C(C)C)cc1OC (stereo not drawn) [Verapamil] | – | 5.44 | – | – | -1.44 | – | – | – | -126.44 | – | – | –
